Values joined by “and” are separate entries in the source; they are usually repeats but may differ in a detail not shown here. Identical values can stand only once.
Target: BTK (Homo sapiens, UniProt Q06187)
Assay: BTK degradation in Mino cells, dose-response Western blot
Format: cell-based
Set-up: endogenous in cells; host or cells: Mino (ATCC CRL-3000), Ramos (ATCC CRL-1596), K562 (NCI-60)
Conditions: 24 h; for Dmax: MINO, read-out: Dmax (maximal degradation); for DC50: second-order polynomial fit
Procedure: We evaluated the ability of the compounds to induce degradation of BTK in human cell lines. We incubated Mino cells with the compounds and followed BTK levels after 24 h by Western blot (Figure 2, Supporting Figure 2). […] The irreversible acrylamides IR-1 and IR-2 and the cyanoacrylamide RC-3 followed closely with DC50’s under 10 nM and Dmax near 90%. […] We conducted metabolomics studies to estimate if cellular penetration and stability may contribute to the relative potencies (Supporting Table 2). NC-1 and RC-3 reached an effective concentration that was ∼2 times higher than IR-2 and ∼10 times higher than RC-2. Therefore, the lower potency of RC-2 can at least in part be explained by lower permeability or stability.
Figure 2 Efficient BTK degradation in cells. (A) Western blot evaluation of BTK levels in Mino cells in response to various concentrations of RC-2, IR-2, NC-1, and RC-3, after 24 h of incubation. (B) Quantification of BTK levels in (A) by normalization to the β-actin house-keeping gene in Mino cells. DC50 and Dmax were calculated by fitting the data to a second-order polynomial using Prism software. (C) Summary of the DC50 and Dmax values for the PROTACs in Mino cells described in (A) and Supporting Figure 2. TEXT PRINTED IN THE PICTURE: (C) NC-1: DC50 (nM): 2.2; Dmax (%): 97 | (C) IR-1: DC50 (nM): 8.6; Dmax (%): 91 | (C) IR-2: DC50 (nM): 1.9; Dmax (%): 88 | (C) RC-1: DC50 (nM): 10; Dmax (%): 68 | (C) RC-2: DC50 (nM): 35; Dmax (%): 66 | (C) RC-3: DC50 (nM): 6; Dmax (%): 85
Ramos (ATCC, CRL-1596), Mino (ATCC, CRL-3000), or K562 (NCI-60) cell lines were counted and diluted to 10^6 cell/mL, using 1 mL per well in a 24-well plate, and U2OS (ATCC HTB-96) cells overexpressing human BTK WT or C481S mutant were grown using 2 mL in a six-well plate (see Supporting Information). Cells were incubated with 1% DMSO or compound in indicated concentrations for 24 h unless indicated differently, or cells were left untreated. Lysates were prepared as previously described,[29] and samples were measured for total protein quantification by bicinchoninic acid (BCA) assay (#23225 ThermoFisher Scientific) supplemented with 4× loading buffer including 20 mM DTT, heated to 70 °C for 10 min, loaded into 4% SDS-PAGE gel, run for 45 min at 140 mV, then transferred into a nitrocellulose membrane (Biorad) using a Trans-Blot Turbo transfer system (Biorad). The membrane was stained with Ponceau (Sigma) to validate transfer for 10 min in gentle agitation then destained for 1 h with MQ water. The membrane was blocked with Licor blocking buffer (LIC927-70001) for 1 h, washed three times for 5 min with TBS-T, incubated with primary antibody BTK (D3H5) rabbit mAb (CST; 8547 S) overnight (16 h) at 4 °C, washed three times for 5 min with TBS-T, and incubated with primary antibody against β-actin (CST; 3700) for 1 h at 25 °C. Membrane was washed three times for 5 min with TBS-T, incubated with fluorescent secondary antibodies anti-mouse IgG Alexa Fluor 647 (CST: 4410S) and anti-rabbit-IgG IRDye 800(LICOR: 926-32211) for 1 h, then washed three times for 5 min with TBS-T, dried, and immediately imaged and analyzed using Licor Odyssey CLx. Prism (GraphPad) software was used to calculate degradation levels. We used second-order polynomial fits to estimate DC50 and Dmax values.

BTK, sequence (Q06187 whole entry): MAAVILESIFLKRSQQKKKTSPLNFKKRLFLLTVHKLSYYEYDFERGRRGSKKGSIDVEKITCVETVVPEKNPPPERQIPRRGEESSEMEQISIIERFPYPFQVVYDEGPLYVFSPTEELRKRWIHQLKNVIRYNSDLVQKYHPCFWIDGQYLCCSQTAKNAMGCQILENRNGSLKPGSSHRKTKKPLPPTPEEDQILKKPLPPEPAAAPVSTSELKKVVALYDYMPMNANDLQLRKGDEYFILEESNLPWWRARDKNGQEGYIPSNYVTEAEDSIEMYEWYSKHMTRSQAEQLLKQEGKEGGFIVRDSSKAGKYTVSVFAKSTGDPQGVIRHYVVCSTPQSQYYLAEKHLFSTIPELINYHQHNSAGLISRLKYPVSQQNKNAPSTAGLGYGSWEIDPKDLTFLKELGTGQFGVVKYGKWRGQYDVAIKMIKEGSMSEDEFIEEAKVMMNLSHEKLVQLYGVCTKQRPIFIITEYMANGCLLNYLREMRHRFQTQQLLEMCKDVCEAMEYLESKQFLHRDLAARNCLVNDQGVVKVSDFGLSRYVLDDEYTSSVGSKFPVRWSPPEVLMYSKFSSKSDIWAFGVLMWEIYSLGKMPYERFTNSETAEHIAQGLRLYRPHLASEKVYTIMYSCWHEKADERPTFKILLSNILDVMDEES

`N#CC(=CCCCCOCCOCCOCCOCCOc1cccc2c1C(=O)N(C1CCC(=O)NC1=O)C2=O)C(=O)N1CCCC(n2nc(-c3ccc(Oc4ccccc4)cc3)c3c(N)ncnc32)C1` (centres unmarked) [RC-2] showed a Dmax of 66%.
For `Nc1ncnc2c1c(-c1ccc(Oc3ccccc3)cc1)nn2C1CCCN(C(=O)C=CCCCCOCCOCCOCCOCCOc2cccc3c2C(=O)N(C2CCC(=O)NC2=O)C3=O)C1` (centres unmarked) [IR-2], the “Dmax (maximal degradation)” value was 88% and the Dmax was about 90%.
With `Nc1ncnc2c1c(-c1ccc(Oc3ccccc3)cc1)nn2C1CCCN(C(=O)C=CCOCCOCCOCCOCCOCCOc2cccc3c2C(=O)N(C2CCC(=O)NC2=O)C3=O)C1` (centres unmarked) [IR-1] the “Dmax (maximal degradation)” value was 91%, the DC50 was < 10 nM and 8.6 nM and the Dmax was about 90%.
`CC(C)(C=C(C#N)C(=O)N1CCCC(n2nc(-c3ccc(Oc4ccccc4)cc3)c3c(N)ncnc32)C1)CCCOCCOCCOCCOCCOc1cccc2c1C(=O)N(C1CCC(=O)NC1=O)C2=O` (centres unmarked) [RC-3] was tested, and the “Dmax (maximal degradation)” value was 85%, the DC50 was < 10 nM and 6 nM and the Dmax was about 90%.
`Nc1ncnc2c1c(-c1ccc(Oc3ccccc3)cc1)nn2C1CCCN(C(=O)CCCCCCOCCOCCOCCOCCOc2cccc3c2C(=O)N(C2CCC(=O)NC2=O)C3=O)C1` (centres unmarked) [NC-1] showed a DC50 of 2.2 nM and a Dmax of 97%.
